In US20090221624A1, “4-AMINOQUINOLINE COMPOUNDS FOR TREATING VIRUS-RELATED CONDITIONS” (priority 2005, published 2009):

What was measured:
[1] = system: HCV replicon (Clone A cells, Huh7, subgenomic hepatits C virus RNA); test: HCV Neo screening assay (HCV replicon, NPTII ELISA); assay type: cell-based, hepatitis C virus; settings: for EC50 / inhibition at 25 µM: Hepatitis C virus, Huh-7; for EC50: Secondary Data, HCV; for inhibition at 25 µM: primary screening, 25 μM final concentration, 24 hours, percent inhibition of viral replication, read-out: HCV Inh; for HCV TI: therapeutic index CC50/EC50, HCV
RSV minigenome = test: RSV minigenome-dependent β-galactosidase expression assay (RSV β-Gal); assay type: cell-based, respiratory syncytial virus; settings: for EC50 / inhibition at 25 µM: human respiratory syncytial virus; for EC50: Secondary Data, RSV, read-out: RSV EC50; for inhibition at 25 µM: primary screening, 25 μM final concentration, 24 hours, percent inhibition of viral replication, read-out: RSV Inh; for RSV TI: therapeutic index CC50/EC50, RSV
WNV (WN-hRuPac cells) = test: WNV antiviral activity, WN-hRuPac cells, Renilla luciferase; assay type: cell-based, West Nile virus; settings: for EC50 / inhibition at 25 µM: West Nile virus; for EC50: Secondary Data, WNV, read-out: WNV EC50; for inhibition at 25 µM: primary screening, 25 μM final concentration, 24 hours, percent inhibition of viral replication, read-out: WNV Inh; for WNV TI: therapeutic index CC50/EC50, WNV
YFV (YF-hRuPac cells) = test: microbe, parasite or virus in culture; assay type: cell-based, yellow fever virus; settings: for inhibition at 25 µM / EC50: Yellow fever virus; for inhibition at 25 µM: 24 h, read-out: YFV Inh; for EC50: read-out: YFV EC50
DNG (D2-hRuPac cells) = test: DNG antiviral activity, D2-hRuPac cells, Renilla luciferase; assay type: cell-based, Dengue fever virus; settings: Dengue virus, secondary screening
EBOV minigenome = test: microbe, parasite or virus in culture; assay type: cell-based, Ebola virus; settings: Zaire ebolavirus; for inhibition at 25 µM: 24 h, read-out: EBOV Inh; for EC50: read-out: EBOV EC50
SINV (SR19-F-luc cells) = test: SINV antiviral activity, SR19-F-luc cells, Firefly luciferase; assay type: cell-based; settings: Sindbis virus; for inhibition at 25 µM: primary screening, 25 μM final concentration, 24 hours, percent inhibition of viral replication, read-out: SINV Inh; for EC50: secondary screening, SR19-F-luc cells

| Structure (SMILES) | inhibition at 25 µM [1] [%] | EC50 (RSV minigenome) [µM] | inhibition at 25 µM (RSV minigenome) [%] | RSV TI (RSV minigenome) | EC50 (WNV (WN-hRuPac cells)) [µM] | inhibition at 25 µM (WNV (WN-hRuPac cells)) [%] | WNV TI (WNV (WN-hRuPac cells)) | YFV TI (YFV (YF-hRuPac cells)) | inhibition at 25 µM (YFV (YF-hRuPac cells)) [%] | EC50 (YFV (YF-hRuPac cells)) [µM] | EC50 (DNG (D2-hRuPac cells)) [µM] | inhibition at 25 µM (EBOV minigenome) [%] | EC50 (EBOV minigenome) [µM] | inhibition at 25 µM (SINV (SR19-F-luc cells)) [%] | EC50 (SINV (SR19-F-luc cells)) [µM] | CC50 (in vitro; DNG CC50) [µM] | CC50 (in vitro; EBOV CC50) [µM] | CC50 (in vitro; HCV CC50) [µM] | CC50 (in vitro; RSV CC50) [µM] | CC50 (in vitro; SINV CC50) [µM] | further results |
| --- | --- | --- | --- | --- | --- | --- | --- | --- | --- | --- | --- | --- | --- | --- | --- | --- | --- | --- | --- | --- | --- |
| CCOC(=O)c1ccc(Nc2cc(C)nc3c2ccc2ccccc23)cc1 [Compound 4] | 105 | 37 | 47.7 | 1.97 | ≥ 75 | 28.4 | 0.97 | 17.1 | 81.7 | 4.26 | 32.7 | 6.57 | 59.3 | -22.2 | ≥ 75 | 72.9 | 72.9 | 32.5 | 72.9 | 72.9 | EC50 [1]: 15.6 µM; HCV TI [1]: 2.08; CC50 (in vitro; WNV CC50): 72.9 µM; CC50 (in vitro; YFV CC50): 72.9 µM |
| CCOC(=O)c1ccc2nc(C)cc(Nc3ccc(C)cc3C)c2c1 [Compound 51] | 55.5 | 3.72 | 75.5 | 15.07 | 16 | 49 | 3.5 | 3.62 | 41.8 | 15.5 | 61 | 33.7 | 52.6 | 51.9 | 13.7 | 56.1 | 56.1 | 21.4 | 56.1 | 56.1 | EC50 [1]: 11.3 µM; HCV TI [1]: 1.89; CC50 (in vitro; WNV CC50): 56.1 µM; CC50 (in vitro; YFV CC50): 56.1 µM |
| Cc1ccc2nc3c(c(Nc4ccc(O)cc4)c2c1)CCC3 [Compound 16] | 119 | 7.1 | 88.5 | 4.81 | 13.1 | 66.8 | 2.61 | 1.63 | 75.9 | 21 | 9.44 | 7.83 | 29.9 | 79.5 | 1.52 | 34.1 | 34.1 | 33.5 | 34.1 | 34.1 | EC50 [1]: 9 µM; HCV TI [1]: 3.72; CC50 (in vitro; WNV CC50): 34.1 µM; CC50 (in vitro; YFV CC50): 34.1 µM |
| COC(=O)c1ccc(Nc2c3c(nc4ccccc24)CCC3)cc1 [Compound 8] | 98.9 | 9.7 | 75.5 | 7.73 | 59.1 | 49 | 1.27 | 2.91 | 66.8 | 25.8 | 61.5 | 4.74 | 54.5 | 34.9 | 24.2 | ≥ 75 | ≥ 75 | 71.6 | ≥ 75 | ≥ 75 | EC50 [1]: 0.13 µM; HCV TI [1]: 550.77; CC50 (in vitro; WNV CC50): ≥ 75 µM; CC50 (in vitro; YFV CC50): ≥ 75 µM |
| Cc1ccc2nc(C)cc(N3CCC(C)CC3)c2c1 [Compound 15] | 45.1 | 7.34 | 72.6 | 9.94 | ≥ 75 | 55.9 | 0.97 | 1.57 | 37.5 | 46.4 | 71.9 | 49.2 | 71.1 | 72 | 5.58 | 72.9 | 72.9 | 35.7 | 72.9 | 72.9 | CC50 (in vitro; WNV CC50): 72.9 µM; CC50 (in vitro; YFV CC50): 72.9 µM |
| CCOc1ccc2nc(C)cc(Nc3ccc(Br)cc3)c2c1 [Compound 41] | 117 | 2.04 | 99.4 | 14.11 | 7.4 | 100 | 3.89 | 7.97 | 96.5 | 3.61 | 7.91 | 95.2 | 75 | 97.2 | 2.96 | 28.8 | 28.8 | 3.01 | 28.8 | 28.8 | EC50 [1]: 4 µM; HCV TI [1]: 0.75; CC50 (in vitro; WNV CC50): 28.8 µM; CC50 (in vitro; YFV CC50): 28.8 µM |
| Cc1cc(C)c2nc(C)cc(Nc3ccc(Cl)c(Cl)c3)c2c1 [Compound 53] | 150 | 3.78 | 100 | 13 | 20.9 | 91.9 | 2.35 | 7.6 | 79.9 | 6.47 | 28.7 | 75.6 | 75 | 88.1 | 6.69 | 49.1 | 49.1 | 8.3 | 49.1 | 49.1 | EC50 [1]: 4.78 µM; HCV TI [1]: 1.74; CC50 (in vitro; WNV CC50): 49.1 µM; CC50 (in vitro; YFV CC50): 49.1 µM |
| Cc1ccc(Nc2cc(C)nc3c2ccc2ccccc23)cc1 [Compound 9] | 98.3 | 4.1 | 88.2 | 17.8 | 30.6 | 33.4 | 2.38 | 13.51 | 76.2 | 5.4 | ≥ 75 | -17.1 | 61.5 | 48.2 | ≥ 75 | 73 | 73 | 9.83 | 73 | 73 | EC50 [1]: 1.77 µM; HCV TI [1]: 5.55; CC50 (in vitro; WNV CC50): 73 µM; CC50 (in vitro; YFV CC50): 73 µM |
| CCOC(=O)c1cnc2c(ccc3ccccc32)c1NCc1ccco1 [Compound 37] | 72.9 | 1.38 | 58 | 30.12 | 4.08 | 87.8 | 10.19 | 15.12 | 94.4 | 2.75 | 25.5 | 15.7 | 75 | 10.3 | ≥ 75 | 41.6 | 41.6 | 56 | 41.6 | 41.6 | EC50 [1]: 13 µM; HCV TI [1]: 4.31; CC50 (in vitro; WNV CC50): 41.6 µM; CC50 (in vitro; YFV CC50): 41.6 µM |
| CCOC(=O)c1cnc2c(C(F)(F)F)cccc2c1Nc1ccc(S(=O)(=O)Nc2nc(C)cc(C)n2)cc1 [Compound 72] | -24.8 | 41.7 | 50.3 | 1.8 | 13.3 | 83.2 | 5.64 | 3.59 | 90 | 20.9 | 12 | 86 | 17.3 | -4.36 | 37.1 | ≥ 75 | ≥ 75 | ≥ 75 | ≥ 75 | ≥ 75 | CC50 (in vitro; WNV CC50): ≥ 75 µM; CC50 (in vitro; YFV CC50): ≥ 75 µM |
| Cc1ccc2nc3c(c(Nc4ccccc4)c2c1)CCC3 [Compound 27] | 113 | 6 | 92.2 | 8.45 | 2.78 | 60 | 18.24 | 4.3 | 70.2 | 11.8 | 38.4 | -4.87 | 63.4 | 70.6 | 1.88 | 50.7 | 50.7 | 24.2 | 50.7 | 50.7 | EC50 [1]: 14 µM; HCV TI [1]: 1.73; CC50 (in vitro; WNV CC50): 50.7 µM; CC50 (in vitro; YFV CC50): 50.7 µM |
| CCOc1ccc2nc(C)cc(Nc3ccc(N(C)C)cc3)c2c1 [Compound 57] | 136 | 4.56 | 97.9 | 6.8 | 3.6 | 85.7 | 8.62 | 11.24 | 95.8 | 2.76 | 6.28 | 70.8 | 75 | 87.7 | 3.97 | 31 | 31 | 4.23 | 31 | 31 | EC50 [1]: 4.98 µM; HCV TI [1]: 0.85; CC50 (in vitro; WNV CC50): 31 µM; CC50 (in vitro; YFV CC50): 31 µM |
